Assay results as given in patent US8501732B2, “Aminomethyl quinolone compounds” (Hoffmann-La Roche Inc., priority 2011, dated 2013).
Structures can show the parent of a compound that is named as a salt. Where two headings read alike, the source gives them in different places.

Target: JNK1 (Homo sapiens (Human), UniProt P45983)
Experiment: In Vitro JNK1 Assay (TR-FRET, phosphorylation of GST-c-Jun)
Type: biochemical
Procedure: Phosphorylation of GST-c-Jun protein (amino acid residues 1-79) was measured as JNK1 activity. […] The reaction buffer contained 50 mM HEPES, pH […], 1 mM DTT, 0.1 mM Na3VO4 and 0.2 mg/mL BSA. After 30 min. incubation at room temperature, the reaction was terminated by adding buffer containing 8 mM EDTA and a polyclonal anti-phospho-c-Jun antibody (Cell Signaling #9261L), followed by an additional incubation of 30 min. at room temperature. […] Time-resolved Fluorescence Resonance Energy Transfer (TR-FRET) signals were measured 1 hr. later on the EnVision reader (Perkin Elmer). Compound potency was assessed at 10 serially diluted concentrations. Percentage of inhibition at each concentration was determined to generate an IC50 value for each compound.

[1] = 0.2 nM active JNK1 kinase, 26.7 nM GST-c-Jun, 2 μM ATP, 30 min at room temperature

Sequence of JNK1 (P45983 whole entry): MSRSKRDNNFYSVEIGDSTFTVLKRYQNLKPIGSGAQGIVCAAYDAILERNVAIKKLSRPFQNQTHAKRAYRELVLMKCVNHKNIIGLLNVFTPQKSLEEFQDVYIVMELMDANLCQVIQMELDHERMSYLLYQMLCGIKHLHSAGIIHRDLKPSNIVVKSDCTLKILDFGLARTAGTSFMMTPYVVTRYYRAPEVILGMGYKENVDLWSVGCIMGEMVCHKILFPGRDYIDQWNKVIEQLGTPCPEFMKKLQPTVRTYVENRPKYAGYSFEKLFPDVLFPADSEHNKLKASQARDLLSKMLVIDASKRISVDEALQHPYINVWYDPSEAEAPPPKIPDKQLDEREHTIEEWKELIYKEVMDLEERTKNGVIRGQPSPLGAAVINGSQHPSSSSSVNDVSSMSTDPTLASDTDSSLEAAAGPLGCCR

IC50 [1] | Structure (SMILES) | IC50
1200 nM | O=C(NCc1cn(-c2ccccc2)c2cc(Cl)ccc2c1=O)N1CCCC1 [Example I-186, Pyrrolidine-1-carboxylic acid (7-chloro-4-oxo-1-phenyl-1,4-dihydro-quinolin-3-ylmethyl)-amide] | –
920 nM | COC(=O)c1c(CN(C)C(=O)c2ccc(S(C)(=O)=O)cc2)c(=O)c2ccc(Cl)cc2n1-c1ccccc1 [Example I-211, 7-Chloro-3-{[(4-methanesulfonyl-benzoyl)-methyl-amino]-methyl}-4-oxo-1-phenyl-1,4-dihydro-quinoline-2-carboxylic acid methyl ester] | –
630 nM | CN(C)c1ccc(NC(=O)NCc2cn(-c3ccccc3)c3cc(Cl)ccc3c2=O)cc1 [Example I-202, 1-(7-Chloro-4-oxo-1-phenyl-1,4-dihydro-quinolin-3-ylmethyl)-3-(4-dimethylamino-phenyl)-urea] | –
240 nM | O=C(NCc1cn(-c2ccccc2)c2cc(Cl)ccc2c1=O)NC1C2CC3CC1CC(O)(C3)C2 (stereo not drawn) [Example I-191, 1-(7-Chloro-4-oxo-1-phenyl-1,4-dihydro-quinolin-3-ylmethyl)-3-(5-hydroxy-adamantan-2-yl)-urea] | –
1700 nM | O=C(NCc1cn(-c2ccccc2)c2cc(Cl)ccc2c1=O)N1CCCCC1 [Example I-188, Piperidine-1-carboxylic acid (7-chloro-4-oxo-1-phenyl-1,4-dihydro-quinolin-3-yl-methyl)-amide] | –
910 nM | CC(C)(C)OC(=O)N1CCC(NC(=O)NCc2cn(-c3ccccc3)c3cc(Cl)ccc3c2=O)C1 (stereo not drawn) [Example I-183, 3-[3-(7-Chloro-4-oxo-1-phenyl-1,4-dihydro-quinolin-3-ylmethyl)-ureido]-pyrrolidine-1-carboxylic acid tert-butyl ester] | –
850 nM | O=C(NCc1cn(-c2ccccc2)c2cc(Cl)ccc2c1=O)N1CCOCC1 [Example I-200, Morpholine-4-carboxylic acid (7-chloro-4-oxo-1-phenyl-1,4-dihydro-quinolin-3-ylmethyl)-amide] | –
580 nM | O=C(NCc1cn(-c2ccccc2)c2cc(Cl)ccc2c1=O)NC1CCN(C(=O)OCc2ccccc2)CC1 [Example I-195, 4-[3-(7-Chloro-4-oxo-1-phenyl-1,4-dihydro-quinolin-3-ylmethyl)-ureido]-piperidine-1-carboxylic acid benzyl ester] | –
1100 nM | COC(=O)[C@H]1CC[C@@H](NC(=O)NCc2cn(-c3ccccc3)c3cc(Cl)ccc3c2=O)CC1 [Example I-185, 4-[3-(7-Chloro-4-oxo-1-phenyl-1,4-dihydro-quinolin-3-ylmethyl)-ureido]-cyclohexanecarboxylic acid methyl ester] | –

More lines, now with the values behind:

Structure (SMILES) | IC50 [1] | IC50
O=C(NCc1cn(-c2ccccc2)c2cc(Cl)ccc2c1=O)NC1CCN(C(=O)Oc2ccccc2)CC1 [Example I-193, 4-[3-(7-Chloro-4-oxo-1-phenyl-1,4-dihydro-quinolin-3-ylmethyl)-ureido]-piperidine-yl-carboxylic acid phenyl ester] | – | 180 nM
CC(C)(C)OC(=O)N[C@H]1CC[C@@H](NC(=O)NCc2cn(-c3ccccc3)c3cc(Cl)ccc3c2=O)CC1 [Example I-181, {4-[3-(7-Chloro-4-oxo-1-phenyl-1,4-dihydro-quinolin-3-ylmethyl)-ureido]-cyclohexyl}-carbamic acid tert-butyl ester] | 200 nM | –
CN1CCN(c2ccc(C(=O)NCc3cn(-c4ccccc4)c4cc(Cl)ccc4c3=O)cn2)CC1 [Example I-88, N-(7-Chloro-4-oxo-1-phenyl-1,4-dihydro-quinolin-3-ylmethyl)-6-(4-methyl-piperazin-1-yl)-nicotinamide] | 250 nM | –
O=C(NCc1cn(-c2ccccc2Cl)c2cc(Cl)ccc2c1=O)c1ccc(Br)nc1 [Example I-101, 6-Bromo-N-[7-chloro-1-(2-chloro-phenyl)-4-oxo-1,4-dihydro-quinolin-3-ylmethyl]-nicotinamide] | 600 nM | –
O=C(NCc1cn(-c2ccccc2F)c2cc(F)ccc2c1=O)c1ccc(Cl)nc1 [Example I-105, 6-Chloro-N-[7-fluoro-1-(2-fluoro-phenyl)-4-oxo-1,4-dihydro-quinolin-3-yl-methyl]-nicotinamide] | 150 nM | –
O=C(NCc1cn(-c2ccccc2)c2cc(Cl)ccc2c1=O)c1ccc(-c2cnco2)cc1 [Example I-47, N-(7-Chloro-4-oxo-1-phenyl-1,4-dihydro-quinolin-3-ylmethyl)-4-oxazol-5-yl-benzamide] | 170 nM | –
COC(=O)c1ccc(C(=O)NCc2c(-c3ncco3)n(-c3ccccc3)c3cc(Cl)ccc3c2=O)cn1 [Example I-5, 5-[(7-Chloro-2-oxazol-2-yl-4-oxo-1-phenyl-1,4-dihydro-quinolin-3-ylmethyl)-carbamoyl]-pyridine-2-carboxylic acid methyl ester] | 25 nM | –
COC(=O)c1c(CNC(=O)Oc2ccccc2)c(=O)c2ccc(Cl)cc2n1-c1ccccc1 [Example I-210, 7-Chloro-4-oxo-3-(phenoxycarbonylamino-methyl)-1-phenyl-1,4-dihydro-quinoline-2-carboxylic acid methyl ester] | – | 1100 nM
COc1ccccc1Cn1ccc(C(=O)NCc2cn(-c3ccccc3)c3cc(Cl)ccc3c2=O)cc1=O [Example I-48, 1-(2-Methoxy-benzyl)-2-oxo-1,2-dihydro-pyridine-4-carboxylic acid (7-chloro-4-oxo-1-phenyl-1,4-dihydro-quinolin-3-ylmethyl)-amide] | 180 nM | –
CC(C)(C)OC(=O)N1CCC(C(=O)NCc2cn(-c3ccccc3)c3cc(Cl)ccc3c2=O)C1 (stereo not drawn) [Example I-51, 3-[(7-Chloro-4-oxo-1-phenyl-1,4-dihydro-quinolin-3-ylmethyl)-carbamoyl]-pyrrolidine-1-carboxylic acid tert-butyl ester] | 330 nM | –
O=C(NCc1cn(-c2ccccc2)c2cc(Cl)ccc2c1=O)c1ccc(=O)n(Cc2ccccc2)c1 [Example I-52, 1-Benzyl-6-oxo-1,6-dihydro-pyridine-3-carboxylic acid (7-chloro-4-oxo-1-phenyl-1,4-dihydro-quinolin-3-ylmethyl)-amide] | 380 nM | –
NC1CCN(c2ccc(C(=O)NCc3cn(-c4ccccc4)c4cc(Cl)ccc4c3=O)cn2)CC1 [Example I-90, 4-Amino-3,4,5,6-tetrahydro-2H-[1,2′]bipyridinyl-5′-carboxylic acid (7-chloro-4-oxo-1-phenyl-1,4-dihydro-quinolin-3-ylmethyl)-amide trifluoroacetate] | 130 nM | –
COC(=O)c1c(CNC(=O)c2ccccc2OC)c(=O)c2ccc(Cl)cc2n1-c1ccccc1 [Example I-149, 7-Chloro-3-[(2-methoxy-benzoylamino)-methyl]-4-oxo-1-phenyl-1,4-dihydro-quinoline-2-carboxylic acid methyl ester] | 670 nM | –
CN(C)C(=O)c1c(CNC(=O)c2ccc3c(c2)OCCO3)c(=O)c2ccc(Cl)cc2n1-c1ccccc1 [Example I-21, 7-Chloro-3-{[(2,3-dihydro-benzo[1,4]dioxine-6-carbonyl)-amino]-methyl}-4-oxo-1-phenyl-1,4-dihydro-quinoline-2-carboxylic acid dimethylamide] | 460 nM | –
Cn1cnc2cc(C(=O)NCc3cn(-c4ccccc4)c4cc(Cl)ccc4c3=O)cnc21 [Example I-45, 3-Methyl-3H-imidazo[4,5-b]pyridine-6-carboxylic acid (7-chloro-4-oxo-1-phenyl-1,4-dihydro-quinolin-3-ylmethyl)-amide] | 110 nM | –
